In publication PMC12794186, “Covalent Alkynylpyridopyrimidinones Targeting Cysteine 775 of the Epidermal Growth Factor Receptor Overcome Resistance to Current Therapies” (Journal of Medicinal Chemistry, 2025):

Tests used:
[1] = target: recombinant doubly mutated EGFR L858R, T790M kinase domain (mLT-EGFR) (Homo sapiens, UniProt P00533, L858R/T790M); test: Kinetic analysis (AssayQuant); assay type: biochemical; settings: read-out: KI app
Procedure: Measurement of K I, K inact and K inact/K I was carried out by AssayQuant Technologies inc.

[2] = system: EGFR phosphorylation (Tyr1068) in H1975 (L858R, T790M) cells; test: HTRF cellular EGFR phosphorylation; assay type: cell-based; settings: Homo sapiens, NCI-H1975; HTRF, mean ± SD of 4 experiments; read-out: H1975 pEGFR IC50
Procedure: Cells were plated at 20,000 cells per well in 96-well plates and placed at 37 °C with 5% CO2. Compounds were reconstituted in DMSO. Once adhered (after 24 h), cells were treated with compounds at a final concentration of 0.1% DMSO in media. Compounds were added to duplicate wells and incubated 37 °C for 3 h with 5% CO2. For A431 cells 0.5 h before the end of incubation; 100 ng/mL of EGF (Thermo Fisher, Cat. No. PHG0311) was added to all compound-treated cells as well as control. Compound and media were removed from the cells, and then 50 μL of HTRF lysis buffer was added (lysis buffer was diluted from 4× stock to 1× in deionized (DI) water, with 1% blocking agent also added). Cells were lysed on a plate shaker (2000 rpm) for 30 min at room temperature. pEGFR expression was assessed using the Human Phospho-EGFR (Tyr1068) cellular detection kit (Revvity, Cat. No. 64EG1PEH). Total EGFR expression was monitored using the Human Total EGFR cellular detection kit (Revvity, Cat. No. 64NG1PEH) as per the manufacturer’s instructions. […] Results were calculated as the ratio of pEGFR/total EGFR and then the percentage of 0 μM control.

[3] = system: EGFR phosphorylation (Tyr1068) in A431 (WT-EGFR) cells; test: HTRF cellular EGFR phosphorylation; assay type: cell-based; settings: Homo sapiens, A-431, mean ± SD of 4 experiments, read-out: A431 pEGFR IC50
Procedure: Cells were plated at 20,000 cells per well in 96-well plates and placed at 37 °C with 5% CO2. Compounds were reconstituted in DMSO. Once adhered (after 24 h), cells were treated with compounds at a final concentration of 0.1% DMSO in media. Compounds were added to duplicate wells and incubated 37 °C for 3 h with 5% CO2. For A431 cells 0.5 h before the end of incubation; 100 ng/mL of EGF (Thermo Fisher, Cat. No. PHG0311) was added to all compound-treated cells as well as control. Compound and media were removed from the cells, and then 50 μL of HTRF lysis buffer was added (lysis buffer was diluted from 4× stock to 1× in deionized (DI) water, with 1% blocking agent also added). Cells were lysed on a plate shaker (2000 rpm) for 30 min at room temperature. pEGFR expression was assessed using the Human Phospho-EGFR (Tyr1068) cellular detection kit (Revvity, Cat. No. 64EG1PEH). Total EGFR expression was monitored using the Human Total EGFR cellular detection kit (Revvity, Cat. No. 64NG1PEH) as per the manufacturer’s instructions. Fluorescence emission was read at two different wavelengths (665 and 620 nm) on a PHERAstar microplate reader (BMG Labtech). Results were calculated as the ratio of pEGFR/total EGFR and then the percentage of 0 μM control.

[4] = system: EGFR phosphorylation (Tyr1068) in H1975 (L858R, T790M) cells; test: Western blot of EGFR phosphorylation; assay type: cell-based; settings: H1975, 4 h exposure
Procedure: Cells, seeded on the previous day, were incubated with test compound at the indicated concentrations or DMSO (0.1%) for 4 h. […] Preparation of lysates and Western blotting was performed twice as independent experiments.

[5] = system: pERK1/2 phosphorylation in H1975 (L858R, T790M) cells; test: Western blot of ERK1/2 phosphorylation; assay type: cell-based; settings: H1975, 4 h exposure
Procedure: Cells, seeded on the previous day, were incubated with test compound at the indicated concentrations or DMSO (0.1%) for 4 h. Cells were lysed in Phosphosafe extraction buffer (Merck, Cat. No. 71296) combined with cOmplete Protease Inhibitor Cocktail (Merck, Cat. No. 4693116001) prepared as per the manufacturer’s instructions. Protein concentrations were determined using BCA Protein Assay Kit (Thermo Scientific, Cat. No. 23227). Preparation of lysates and Western blotting was performed twice as independent experiments.
Samples were prepared by diluting lysates in PBS to the desired concentration and before adding 4X XT sample buffer. Samples were then denatured at 98 °C for 5 min and then centrifuged to remove the residue. […] The quality of transfer was assessed using Ponceau S Stain (Sigma-Aldrich Cat. No. p7170).
Primary antibodies raised to EGFR (CST Cat. No. 4267), phospho-EGFR (CST Cat. No. 3777), phospho-p44/42 MAPK(ERK1/2) (CST Cat. No. 9101S) and p44/42 MAPK (CST Cat. No. 9102S) were diluted (1:1000) in 5% BSA w/v. Loading control antibodies were prepared in 5% milk w/v with 1× TBS/T (0.1 v/v) solution at a determined optimum concentration.
Proteins were detected using Clarity ECL substrate (Bio-Rad) and imaged using a Licor Odyssey FC.

A431 (WT-EGFR) cells = test: Adherent cell growth inhibition (CyQUANT); assay type: cell-based; settings: Homo sapiens, A-431; replenishment of compound every 72 h
Procedure: (§1) For adherent cell assays, each cell line was plated on day 0 in a 96-well plate at a density known to allow for exponential growth over 72 h. After 24 h, the compounds were diluted to the required concentrations in DMEM + 10% FBS media, maintaining a consistent final DMSO concentration of 0.1%. […] Growth inhibition was then assessed using a CyQUANT Direct Cell Proliferation assay (Invitrogen Cat No. C35011) following the manufacturer’s instructions. Fluorescence intensity (ex/em 480/520 nm) values were acquired using a PHERAstar microplate reader reader (BMG Labtech) and values were expressed as a percentage of the average DMSO treated value.

[6] = system: H1975 (L858R, T790M) cells; test: Adherent cell growth inhibition (CyQUANT); assay type: cell-based; settings: Homo sapiens, NCI-H1975; replenishment of compound every 72 h; read-out: H1975 EGFR GI50
Procedure: as §1

mLTC-EGFR = mLTC-EGFR (Homo sapiens, UniProt P00533, C797S/L858R/T790M); test: Intact protein mass spectrometry, covalent adduct formation; assay type: binding; settings: intact protein mass spectrometry
panel of 394 kinases = test: Kinase selectivity panel, summary; assay type: binding; settings: 1.0 μM
FLT3 = test: Kinase selectivity panel; assay type: binding; settings: 1.0 µM
TYK2 = test: Kinase selectivity panel; assay type: binding; settings: 1.0 µM

C#Cc1cc(=O)n(-c2ccccc2)c2nc(Nc3ccc(N(C)CCN(C)C)cc3)ncc12 [Compound 7, 2-((4-((2-(Dimethylamino)ethyl)(methyl)amino)phenyl)amino)-5-ethynyl-8-phenylpyrido[2,3-d]pyrimidin-7(8H)-one]
Ki [1]: 22 ± 1.3 nM
IC50 [2]: 140 ± 21 nM
IC50 [3]: 4100 nM
concentration eliciting dose-dependent reduction in EGFR phosphorylation (Western blot) [4]: ≥ 100 nM
reduction in ERK1/2 phosphorylation (Western blot) [5]: concomitant reduction in ERK1/2 phosphorylation
GI50 (A431 (WT-EGFR) cells): 2700 ± 1100 nM
GI50 [6]: 1100 ± 1100 nM
covalent adduct formation, in words (mLTC-EGFR): formed only a single adduct
number of kinases showing >75% inhibition (panel of 394 kinases): 10
Mean (Percent Control) (FLT3): 15 Percent Control
Mean (Percent Control) (TYK2): 58.5 Percent Control
